Assays:
[1] = system: glycoprotein metabolism; test: Effect of bromhexine on glycoprotein metabolism: urinary excretion of carbohydrate-containing material, diabetics; type: in vivo, humans
Method: (§1) The effect of N-(2-amino-3,5-dibromo-benzyl)-N-methyl-cyclohexylammonium chloride (Bromhexine) on glycoprotein metabolism was determined as follows:
(§2) 24 hour collections were made from 8 normal healthy humans (4 women and 4 men) and 8 diabetics (1 woman and 7 men) before and after a 3 to 4 week period of treating each subject orally 3 times with 24 mg of bromhexine. A 20% by volume aliquot was taken from each urine specimen and freeze-dried.
(§3) The dried material (ca 1 gm) was dissolved in the minimum quantity of distilled water and the solution was chromatographed with water on a Sephadez G-50 column (length: 148 cm; diameter: 3.4 cm). The carbohydrate-containing fraction was collected and subjected to ultrafiltration using a UM-05 membrane (Amicon Ultrafiltration Cell-Model 202). The filtrate obtained was again freeze-dried.
(§4) The dried material (ca 1 mg) was analyzed for carbohydrate, using gas-liquid chromatography. In this procedure, the sample, together with internal standards, was first subjected to methanolysis with 1.0 M HCl in dry methanol (0.5 ml) for 24 hours at 85° C. The resulting solution was neutralized and then treated with acetic acid anhydride (0.05 ml) for 6 hours. On completion of the treatment the solution obtained was centrifuged, and the supernatant liquid was transferred to a clean flask, dried and stored in a dessicator. When required for gas chromatography, the dried material was triturated with a trimethylsilylating mixture, and the resulting trimethylsilyl ethers of the methyl glycosides were subjected to gas chromatography (140°-200° C. at 0.5° C./min.).
5 patients were maintained on insulin, 2 on oral hypoglycemic agents and 1 on diet alone. Diabetic treatment was not changed during the study. 3 patients suffered varying degrees of retinopathy, 1 had ischaemic heart disease and 1 had intermittent proteinuria.

[2] = system: glycoprotein metabolism; test: Effect of bromhexine on glycoprotein metabolism: urinary excretion of carbohydrate-containing material, healthy subjects; type: in vivo, humans; conditions: after treatment
Method: as §1, §2, §3, §4

[3] = system: mice; conditions: British Pat. No. 968,254; cited from earlier work
[4] = healthy subjects, oral, 3 times 24 mg, 3 to 4 weeks, before 121

CN(Cc1cc(Br)cc(Br)c1N)C1CCCCC1 [N-(2-amino-3,5-dibromo-benzyl)-N-methyl-cyclohexylamine]
proportion of saccharide and glycopeptide excreted ([1]; diabetics, 15 to 30 mg, 3 to 4 times per day): strongly reduced to levels equivalent to those of a normal healthy subject

CN(Cc1cc(Br)cc(Br)c1N)C1CCCCC1.Cl [bromhexine, N-(2-amino-3,5-dibromo-benzyl)-N-methyl-cyclohexylammonium chloride]
24 - Hour Volume ([2]; healthy subjects, oral, 3 times 24 mg, 3 to 4 weeks, 24 hour urine, before 1,281): 1,406 ml
Fraction dry weight ([2]; healthy subjects, oral, 3 times 24 mg, 3 to 4 weeks, before 4.2): 4.4 gm
Total dry weight ([2]; healthy subjects, oral, 3 times 24 mg, 3 to 4 weeks, before 36.3): 44.0 gm
Carbohydrate content: N-Acetylneuraminic acid ([2]; healthy subjects, oral, 3 times 24 mg, 3 to 4 weeks, before 94): 147 μMol/24 hours
Carbohydrate content: Fucose [2, 4]: 224 μMol/24 hours
Carbohydrate content: Mannose [2, 4]: 169 μMol/24 hours
Carbohydrate content: N-Acetylgalactosamine ([2]; healthy subjects, oral, 3 times 24 mg, 3 to 4 weeks, before 139): 196 μMol/24 hours
Carbohydrate content: N-Acetylglucosamine ([2]; healthy subjects, oral, 3 times 24 mg, 3 to 4 weeks, before 204): 287 μMol/24 hours
Carbohydrate content: Galactose ([2]; healthy subjects, oral, 3 times 24 mg, 3 to 4 weeks, before 258): 364 μMol/24 hours
Carbohydrate content: Glucose ([2]; healthy subjects, oral, 3 times 24 mg, 3 to 4 weeks, before 329): 425 μMol/24 hours
Carbohydrate content: Glucuronic acid ([2]; healthy subjects, oral, 3 times 24 mg, 3 to 4 weeks, before 1,085): 1,573 μMol/24 hours
urinary excretion of carbohydrate-containing material ([2]; normal subjects): insignificant rise
excretion of carbohydrate-containing material ([1]; diabetic subjects, after treatment): considerable decrease
24 - Hour Volume ([1]; diabetics, after treatment, oral, 3 times 24 mg, 3 to 4 weeks, 24 hour urine, before 1,694): 1,686 ml
Fraction dry weight ([1]; diabetics, after treatment, oral, 3 times 24 mg, 3 to 4 weeks, before 8.7): 6.1 gm
Total dry weight ([1]; diabetics, after treatment, oral, 3 times 24 mg, 3 to 4 weeks, before 102.6): 110.7 gm
Carbohydrate content: N-Acetylneuraminic acid ([1]; diabetics, after treatment, oral, 3 times 24 mg, 3 to 4 weeks, before 195): 145 μMol/24 hours
Carbohydrate content: Mannose ([1]; diabetics, after treatment, oral, 3 times 24 mg, 3 to 4 weeks, before 205): 121 μMol/24 hours
Carbohydrate content: Fucose ([1]; diabetics, after treatment, oral, 3 times 24 mg, 3 to 4 weeks, before 259): 203 μMol/24 hours
Carbohydrate content: N-Acetylgalactosamine ([1]; diabetics, after treatment, oral, 3 times 24 mg, 3 to 4 weeks, before 264): 176 μMol/24 hours
Carbohydrate content: N-Acetylglucosamine ([1]; diabetics, after treatment, oral, 3 times 24 mg, 3 to 4 weeks, before 313): 181 μMol/24 hours
Carbohydrate content: Galactose ([1]; diabetics, after treatment, oral, 3 times 24 mg, 3 to 4 weeks, before 616): 383 μMol/24 hours
Carbohydrate content: Glucuronic acid ([1]; diabetics, after treatment, oral, 3 times 24 mg, 3 to 4 weeks, before 1,854): 987 μMol/24 hours
Carbohydrate content: Glucose ([1]; diabetics, after treatment, oral, 3 times 24 mg, 3 to 4 weeks, before 12,609): 7,241 μMol/24 hours
animals died (acute oral toxicity) [3]: 0 out of 10

From patent US4229477A, “Pharmaceutical compositions containing bromhexine and method of treating diabetic nephropathy therewith” (Boehringer Ingelheim GmbH, priority 1978, dated 1980)
